This test relates to T-cells. Briefly: Tolerance induction experiment: T-cell fraction preincubated, combined with APCs and re-stimulated. The format is cell-based, human. Conditions: for mean cpm / cpm / SI: individual KF1; for cpm: individual experiments; for proliferation of T-cells when re-stimulated with cow's milk protein after preincubation with the substance: re-stimulated with whey protein concentrate VTP14 or rαS1-casein, in words. The procedure: For the tolerance induction experiment, PBMCs from healthy donors were isolated by Ficoll-density gradient, and the cells were further separated into two fractions. T-cells were enriched with a human Pan-T-cell isolation Kit (Miltenyi, Bergisch Gladbach, Germany), whereas antigen-presenting cells were enriched with human CD3 MicroBeads (Miltenyi, Bergisch Gladbach, Germany) by magnetic cell sorting.
The cell fractions containing the T-cells were incubated overnight with different peptides or medium alone at 37° C. with 5% CO2 and 95% humidity, the antigen-presenting-cell fractions were kept overnight at the same conditions without any antigens. On the next day, the T-cell fractions were washed with DPBS (GIBCO) three times and the T-cell and antigen-presenting-cell fractions were combined. The cells (2×10^5 cells per well) were cultured in triplicates in 96-well plates as described above. […] The analysis was done as described for the lymphoproliferative assays.
T-cell fractions were preincubated over night with high amounts of Nutramigen™ base (VTP11), extensive casein hydrolysate (VTP15), whole cow's milk whey protein (VTP14), Nutramigen™ (VTP3), synthetic peptides ([…], Phl p 5-Pep 1) or buffer (UCO). On the next day the T-cells and the APCs were combined and stimulated with milk samples (VTP14, VTP1). T cell stimulation is given either in counts per minute (cpm) or as stimulation index (SI).

Where [1] appears, read: T-cells tolerized with the substance, stimulated with UCO.
Setting [2] is: tolerized with the substance, stimulated with IL-2.
Setting [3] is: tolerized with the substance, stimulated with VTP1, first line.
Setting [4] is: tolerized with the substance, stimulated with VTP1, second line.
Where [5] appears, read: tolerized with the substance, stimulated with VTP14, first line.
The mark [6] stands for this setting: tolerized with the substance, stimulated with VTP14, second line.

Data on three sequences can be found in patent US20110195153A1, “Nutritional Formulation Comprising A Cows Milk Peptide Containing Hydrolysate And Or Peptides Derived Thereof For Tolerance Induction” (MEAD JOHNSON NUTRITION COMPANY, priority 2009, published 2011).

“And” between values parts separate entries of the source, which are not always exact repeats. Identical values can stand only once.

For “CGAASNKAFAEGLSGEPKGAAESSSKAALTSK (Phleum pratense) [Phl P5-peptide 1, control peptide, grass pollen allergen]”, the mean cpm amounted to 12522 cpm under setting [1]; 14724 cpm under setting [2]; 4295 cpm under setting [3]; 6355 cpm under setting [4]; 41970 cpm under setting [5]; 2336 cpm under setting [6]. The cpm is 11263 cpm and 13457 cpm and 12846 cpm (T-cells tolerized with the substance, stimulated with UCO, listed as Ph1 p 5-Pep 1); 14153 cpm and 17806 cpm and 12214 cpm (tolerized with the substance, stimulated with IL-2, listed as Ph1 p 5-Pep 1); 4708 cpm and 3278 cpm and 4898 cpm (tolerized with the substance, stimulated with VTP1, first line, listed as Ph1 p 5-Pep 1); 6315 cpm and 6342 cpm and 6409 cpm (tolerized with the substance, stimulated with VTP1, second line, listed as Ph1 p 5-Pep 1); 38430 cpm and 45751 cpm and 41730 cpm (tolerized with the substance, stimulated with VTP14, first line, listed as Ph1 p 5-Pep 1); 3282 cpm and 2244 cpm and 1482 cpm (tolerized with the substance, stimulated with VTP14, second line, listed as Ph1 p 5-Pep 1). For the same sequence, the SI reads like this: under setting [2], 1.2; under setting [3], 0.3; under setting [4], 0.5; under setting [5], 3.4; under setting [6], 0.2.
Regarding “CLKKYKVPQLEIVPNSAEERLHSMKEGIHAQQKE (listed as Bos taurus) [Cas4]”, the “proliferation of T-cells when re-stimulated with cow's milk protein after preincubation with the substance” value (“proliferation of T-cells” below) was “suppress the proliferation of T-cells”. Also, the mean cpm under setting [1] turned out to be 16151 cpm. The cpm (T-cells tolerized with the substance, stimulated with UCO, listed as αS2-PEP 4) was 17694 cpm and 14608 cpm. Besides, under setting [2], the SI was 0.9 and the mean cpm was 14533 cpm. For the same sequence, for the setting “tolerized with the substance, stimulated with IL-2, listed as αS2-PEP 4”, the cpm is 12704 cpm and 19463 cpm and 11433 cpm. In addition, under setting [3], the SI came out at 0.4 and the mean cpm is on record as 6304 cpm. Also, the cpm (tolerized with the substance, stimulated with VTP1, first line, listed as αS2-PEP 4) is 6381 cpm and 6304 cpm and 6226 cpm. Further, under setting [4], the SI is 0.4 and the mean cpm stood at 6621 cpm. In addition, where the note is “tolerized with the substance, stimulated with VTP1, second line, listed as αS2-PEP 4”, the cpm was 8231 cpm and 8478 cpm and 3154 cpm. Further, under setting [5], the SI is 1.3 and the mean cpm was 20794 cpm. Further, the cpm (tolerized with the substance, stimulated with VTP14, first line, listed as αS2-PEP 4) is 16162 cpm and 25246 cpm. Moreover, under setting [6], the SI is on record as 0.2 and the mean cpm came to 3747 cpm. For the same sequence, the cpm (tolerized with the substance, stimulated with VTP14, second line, listed as αS2-PEP 4) was 2790 cpm and 4703 cpm.
As to “ISSSEEIVPNSVEQKHIQKEDVPSERYLGYEQLLRC (listed as Bos taurus) [Cas3]”, the “proliferation of T-cells” value was “suppress the proliferation of T-cells”. The “proliferation of T-cells” value (listed as alphaS1-casein-derived peptide 3) is reported as “suppressed the proliferation”.
